# Source: patent US20240026461A1, “BCL10 MUTATIONS AS BIOMARKERS FOR TARGETED THERAPY IN B CELL LYMPHOMAS” (priority 2022, published 2024)
# What was measured:
# [1] = tested on: BCL10^E140X ABC-DLBCL xenografts; experiment: Xenograft, JNJ-67690246 treatment, BCL10^E140X tumors; format: in vivo, mice; conditions: OCI-Ly10 cell line, p.o. 100 mg/kg twice per day
# Source text: FIG. 7A-7K illustrate that subjects with BCL10 truncating mutant lymphomas are hypersensitive to MALT1 protease inhibitors. FIG. 7A graphically illustrates growth inhibition of human diffuse large B-cell lymphoma (HBL1) cells and OCI-Ly10 lymphoma cells expressing wild type or mutant BCL10 proteins in response to MALT1 inhibitor C3. X axis, concentration of compound (M); Y axis, inhibition of cell growth normalized to vehicle treated cells. **p<0.01; ***p<0.001; ****p<0.0001; ns, not significant. […] FIG. 7D graphically illustrates luciferase activity measured in the MALT1 GloSensor reporter cell lines treated with MALT1 inhibitor C3. […] FIG. 7E graphically illustrates luciferase activity measured in the MALT1 GloSensor reporter cell lines treated with MALT1 inhibitor MLT-748. […] FIG. 7F graphically illustrates luciferase activity measured in the MALT1 GloSensor reporter cell lines treated with MALT1 inhibitor JNJ-67690246. […] AUC was calculated with Prism. *p<0.05. FIG. 7J graphically illustrates tumor weight measured at the endpoint of the studies described in FIG. 7G-7I. *p<0.05.
# All mice experiments were approved by Institutional Animal Care & Use Committee (IACUC) at Weill Cornell Medicine and were performed following the IACUC guidelines. […] Tumor volume was monitored 2˜3 times/week with digital caliper and calculated using the following formula. smallest diameter^2×largest diameter×0.5. […]
# HBL1^R58Q = experiment: Growth inhibition assay (CellTiter Glo), HBL1 cells expressing BCL10 R58Q; format: cell-based; conditions: Homo sapiens, 96 h, read-out: IC50, growth inhibition, MALT1 inhibitors
# Procedure: DLBCL cell lines were cultured in exponential condition and the cell growth was determined by CellTiter Glo (Promega). 3000-5000 cells were seeded and cultured in each well of 384 well plate for 96 h and treated with compounds every 48 h. Luminescence was read at the endpoint with the Synergy NEO microplate reader (BioTek). The value of compound treated cells was normalized to their vehicle treated controls and then used to calculate IC50 in GraphPad Prism (RRID:SCR_002798).
# Given the distinct functional profiles, CARD11 dependencies, and MALT1 activation effects of the BCL10 CARD and truncation mutants, the inventors designed experiments to evaluate whether, and to what extent, these mutant BCL10 proteins might confer BTK inhibitor resistance. Isogenic ABC-DLBCL cells expressing BCL10WT, BCL10^R58Q and BCL10^E140X proteins were treated with escalating doses of three chemically distinct covalent BTK inhibitors: ibrutinib, acalabrutinib, or zanubrutinib. The cellular proliferation rates of the treated cells were measured using an ATP fluorescence assay after 96 hours of drug exposure.
# Isogenic BCL10^WT, BCL10^R58Q and BCL10^E140X ABC-DLBCLs were exposed to increasing concentrations of each of these compounds for 96 hours.
compound,measurement,setting,value
Cc1nc(-n2nccn2)c(Cl)cc1NC(=O)c1cnn(-c2cccc3c(=O)[nH]ccc23)c1C(F)(F)F [JNJ-67690246],growth of lymphoma xenografts,[1],significant reduction in growth
same,IC50,HBL1^R58Q,5.77 ± 3.02 µM
